In publication PMC12381739, “Druglike Molecular Degraders of the Oncogenic RNA-Binding Protein HuR” (JACS Au, 2025):

Key:
HuR RRM1/2 = target: T1, HuR RRM1/2 (Homo sapiens, UniProt Q15717); test: Fluorescence polarization (FP) displacement assay, 5′ FAM-labeled RNA probe from HuR; conditions: displacement of 5′-FAM RNA probe UAUUUAUUUA (20 nM) from 500 nM HuR RRM1/2; read-out: Binding affinity towards HuR in FP assay (Kd)
T1 construct: 20 nM of the 5′-FAM RNA probe and 500 nM of HuR RRM1/2
Description: Following the synthesis, our initial aim was to ensure that the new derivatives retained their affinity for HuR’s RNA-binding pocket. Thus, a binding evaluation assay was conducted. As previously reported, the RNA-binding pocket of HuR specifically recognizes the UTR sequences of mRNAs, with […] identified as a common binding motif. To evaluate the binding of each degrader, we conducted a fluorescence-based assay utilizing a 5-carboxyfluorescein (5′ FAM)-labeled reporter. This fluorescence polarization (FP) assay is based on the displacement of the 5′ FAM-labeled mRNA from HuR’s RNA-binding pocket, which provides insight into both the binding affinity of the degrader and its capacity to disrupt the HuR-mRNA interaction, thereby serving as a means of validating target engagement. When the 5′ FAM-RNA probe is bound to HuR, it forms a binary complex, resulting in slower rotational movement and a consequently high FP signal. However, when either molecule displaces the 5′ FAM-labeled RNA, the probe is released into the solution, where it undergoes rapid rotation, leading to a significant reduction in the FP signal (Figure S3). This decrease in FP serves as a quantitative measure of the degrader’s ability to compete with mRNA for HuR binding. […] As mentioned above, we synthesized a series of HuR ligand derivatives featuring indole and benzothiophene cores, along with ester and carboxylic acid functional groups.
As previously reported, the sequence of the fluorescently labeled (5′-FAM) RNA probe is […]. The assays were performed in PBS buffer (20 mM sodium phosphate, 150 mM NaCl, 1 mM dithiothreitol, 0.05% PLURONIC-127, 15% DMSO) at 293 K. Fluorescence was measured using the Synergy H1 Hybrid Multi-Mode Microplate Reader (Biotek, Agilent) with excitation and emission wavelengths set to 485 and 528 nm, respectively. Each well of a 384-well plate contained 20 nM of the 5′-FAM RNA probe and 500 nM of HuR RRM1/2. Compounds were tested at eight concentrations (0.1 nM–100 μM), with compound 10 serving as a positive control and PBS as the negative control. The protein-mRNA mixture was incubated for 1.5 h to allow for binding interactions. After this incubation, the compounds were added, and the mixture was incubated for an additional hour. The FP emission of the resulting HuR-compound complex was then recorded. The percent inhibition of binding was calculated by comparing the FP values of experimental conditions to the PBS control. The FP value corresponding to the HuR-RNA complex in the presence of DMSO was used as the 100% complexation reference, while the FP value of the labeled RNA alone was set as 0% complexation. The dissociation constant (K d) for the compound-HuR binding interaction was determined by fitting the dose–response curve to specific binding models using Prism 10.2.2. All experiments were performed in triplicate.

HuR = HuR (Homo sapiens, UniProt Q15717); test: HuR western blot, dose-dependent treatment (Figure S7, cell line not stated); format: cell-based; parameters: endogenous in cells; host or cells: MCF-7 or MDA-MB-231 (not given); conditions: 48 h, normalized to vinculin
Sequence of HuR (Q15717 whole entry): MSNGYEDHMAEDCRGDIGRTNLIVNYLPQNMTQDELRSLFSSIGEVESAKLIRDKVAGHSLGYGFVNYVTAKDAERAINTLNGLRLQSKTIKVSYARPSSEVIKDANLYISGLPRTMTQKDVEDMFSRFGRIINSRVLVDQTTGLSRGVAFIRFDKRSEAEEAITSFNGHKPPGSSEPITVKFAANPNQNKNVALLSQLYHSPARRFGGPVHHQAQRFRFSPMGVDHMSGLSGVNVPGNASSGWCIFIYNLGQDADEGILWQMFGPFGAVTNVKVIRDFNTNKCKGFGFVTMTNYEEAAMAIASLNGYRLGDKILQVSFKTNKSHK
Description: MDA-MB-231 and MCF-7 cells were seeded in 6-well plates at approximately 60% confluency in complete growth medium and treated with synthesized compounds at the indicated concentrations or with vehicle for 24 h. Total protein was extracted using RIPA cell lysis buffer (BioPrep) containing a protease inhibitor, and protein concentration was measured using the BCA protein assay (Sigma-Aldrich) according to the manufacturer’s protocol. Approximately 30 μg of total protein were resolved on a 12% SDS-acrylamide gel and transferred to a PVDF membrane (Immobilon FL transfer membrane; Merck). The membrane was washed with 1× Tris-buffered saline (TBS) containing 0.1% (v/v) Tween-20 (TBST; Tris-base, pH 7.6, NaCl, and Tween-20) and blocked in 1× TBST containing 5% (w/v) BSA for 2 h at room temperature. The membrane was then incubated overnight at 4 °C with primary antibodies: a 1:1000 dilution of rabbit anti-ELAVL1/HuR (Cell Signaling Technology, #12582), a 1:1000 dilution of mouse anti-Bcl2 (Cell Signaling Technology, #15071), or a 1:10,000 dilution of rabbit anti-Vinculin (Cell Signaling Technology, #13901) in 1× TBST containing 5% (w/v) BSA. […] The fold change in the expression of the target proteins (HuR or Bcl2) was calculated by normalizing the band intensity to the Vinculin band intensity using ImageJ. […]

T1 sequence (Q15717 18-186 limits assumed): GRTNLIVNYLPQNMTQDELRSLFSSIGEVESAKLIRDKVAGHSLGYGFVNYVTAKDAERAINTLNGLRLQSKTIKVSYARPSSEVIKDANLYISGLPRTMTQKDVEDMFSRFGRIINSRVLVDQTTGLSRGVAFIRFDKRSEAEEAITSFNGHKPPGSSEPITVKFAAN

## O=C1CCC(N2C(=O)c3cccc(NCc4cn(-c5ccc6sc(C(=O)O)cc6c5)nn4)c3C2=O)C(=O)N1 (stereo not drawn) [PRO-HuR3]
HuR RRM1/2
  Kd: 30 nM
HuR; 0.01 nM
  HuR protein level relative to UT: 113%
HuR; 0.1 nM
  HuR protein level relative to UT: 108%
